Source: US20080200439A1, “Methods and compositions for modulating BK channel activity and vasodilation” (University of Tennessee Research Foundation, priority 2006, published 2008)

System: pressurized resistance cerebral arteries
Assay: Artery diameter measurement, pressurized rat middle cerebral arteries
Conditions: for Integral (area under the curve) from the time of drug application until complete washout of effect: change in diameter as a function of time; for Effect remaining after ~6 min of washout (percentual increase from diameter before agent application): when vehicle effect had totally vanished
Procedure: Artery Diameter Measurement. Middle cerebral arteries were isolated from adult male Sprague-Dawley rats (=250 g) or 8- to 12-week-old β1-knockout and C57BL/6 control mice. Rats and mice were decapitated using a guillotine and sharp scissors, respectively. These procedures were approved by the Institutional Animal Care and Use Committee from The University of Tennessee Health Science Center, an AMLAC-accredited institution. Pressurization of arteries was performed as described (Liu et al., 2004). Endothelium was removed by passing an air bubble into the vessel lumen for 90 sec. Diameter changes were monitored through an inverted microscope (Nikon Eclipse TS100, Nikon Corp., Tokyo, Japan), recorded on camera (Sanyo VCB-3512T, Sanyo Electric Corp., Japan), and transferred to a computer. Diameter data were acquired and analyzed using IonWizard 4.4 software (IonOptics Corp., Milton, Mass., United States of America).
Pressurized arteries were extraluminally perfused with physiological saline solution (PSS) (Liu et al., 2004) at a constant rate of 3.75 ml/min using a peristaltic pump Dynamax RP-1 (Rainin Instrument, Inc., Oakland, Calif., United States of America). At this rate, complete washout of the iberiotoxin (Ibtx) effect required >45 min. To keep basal tone under steady behavior, we shortened this period by increasing flow rate ˜3 times during washout of Ibtx, which sometimes evoked a flow-induced dilation (FIG. 1A). Equal volumes (25 ml) of vehicle- vs. LC-containing solutions were applied at equal, constant rate (see above) to the pressurized arterial segment in the chamber via a gravity system. Drugs were dissolved to make stock solutions (see Chemicals) and diluted in PSS to final concentration.
Chemicals. All chemicals were purchased from Sigma (St. Louis, Mo., United States of America), with the exception of 5β-cholanic acid 3α-ol (LC) (Steraloids, Inc., Newport, R.I., United States of America) and Ibtx (Alomone Labs Ltd., Jerusalem, Israel). On the day of the experiment, an LC stock solution (333 mM) in dimethyl sulfoxide (DMSO) was freshly prepared by sonication for 5 min. For arterial tone experiments, the LC stock was diluted 1/10 in DMSO and further diluted in PSS to render final LC concentration. Solution containing vehicle (0.1% DMSO; V/V) was used as control perfusion. For electrophysiological recordings, the LC stock solution was diluted 1/10 in 95% ethanol and further diluted with bath solution to render final LC concentration (3-1,000 μM). The DMSO/ethanol vehicle (≦0.1/≦0.86% final concentrations) in bath solution was used as control.
Data Analysis. Artery diameter response to each compound is shown as a percentage of the diameter obtained before compound application. Arterial diameter and electrophysiological data were analyzed with IonWizard 4.4 (IonOptics Corp., Milton, Mass., United States of America) and pCLAMP 8.0 (Molecular Devices, Union City, Calif., United States of America). Further analysis, plotting, and fitting were conducted using Origin 7.0 (Originlab Corp., Northampton, Mass., United States of America) and InStat 3.0 (GraphPad Software Inc., San Diego, Calif., United States of America).
After myogenic tone development at 60 mm Hg, intact arteries reached a diameter of 154.4±5.2 μm (n=17). Maximal contraction and dilation were checked by perfusing the vessel with 60 mM KCl at the beginning, and Ca^2+-free solution at the end of each experiment (FIGS. 1A & 1B). In all cases (n=17), application of 45 μM LC, that is, concentrations well below LC's critical micellar concentration (CMC) (≧1 mM under our recording conditions) (Roda et al., 1995) caused a significant increase in peak arterial diameter: +6% on top of a transient increase in diameter caused by vehicle-containing solution (FIGS. 1A-1C). […]

[1] = 45 μM, listed as Lithocholic acid

| Compound | Change in diameter caused by LC in the presence of Ibtx (45 μM LC + 55 nM Ibtx) [%] | Change in peak diameter caused by LC in the presence of 4-AP (over pre-LC values) (45 μM LC + 0.8 mM 4-AP) | Integral (area under the curve) from the time of drug application until complete washout of effect (45 μM) | Integral (area under the curve) from the time of drug application until complete washout of effect [1] | Expected increase in cerebral blood flow (CBF) (45 μM, from diameter change by a factor of ~3 (Gourley and Heistad, 1984)) [%] | Increase in peak arterial diameter on top of the transient increase caused by vehicle (45 μM, intact arteries) | Rise time (45 μM, intact arteries with myogenic tone at 60 mm Hg) [s] | Effect remaining after ~6 min of washout (percentual increase from diameter before agent application) (45 μM) [%] | Effect remaining after ~6 min of washout (percentual increase from diameter before agent application) [1] [%] | Emax at 45 µM (Rattus norvegicus, 45 μM, intact arteries, read-out: Maximal effect (% from diameter before compound application)) [%] | Decrease in diameter of intact arteries (55 nM, bath application) [%] |
| --- | --- | --- | --- | --- | --- | --- | --- | --- | --- | --- | --- |
| C[C@H](CCC(=O)O)[C@H]1CC[C@H]2[C@@H]3CC[C@@H]4C[C@H](O)CC[C@]4(C)[C@H]3CC[C@]12C [LC, 5β-cholanic acid 3α-ol] | −3.4 | +6% | 18,369±3,964 | 18,369 ± 3,964 | ~30 | +6% | 231.9 ± 21.9 | 109.9±1.7 | 109.9 ± 1.7 | 117 ± 1.9 | – |
| iberiotoxin (QFTDVDCSVSKECWSVCKDLFGVDRGKCMGKKCRCYQ; UniProt P24663 1-37, looked up) [Ibtx, reference compound] | – | – | – | – | – | – | – | – | – | – | −11.8±3.4 |
